In PMC5554537 (Frontiers in Pharmacology, 2017):
Where two headings read alike, the source gives them in different places.

How the values were obtained:
in vivo [1] = conditions: NIH-III, mouse, in vivo, ip
Method: SN30000, M14 and M18 dosing solutions were prepared fresh in normal saline, filtered through 0.45 μm Acrodisc filters (Pall Life Sciences, Port Washington, NY, United States), protected from light in amber vials, and used within 3 h. Doses are expressed as mg of free base equivalent for SN30000 and M14, and free acid in the case of M18. […] For evaluation of acute toxicity, mice were observed continuously for 3 h after dosing, and their activity rated on a lethargy score from 0 representing no change in activity to 5 representing animals that were moribund and required culling. For MTD studies, the animals were checked daily for clinical signs of toxicity and body weight change for 2 weeks. In some studies rectal temperature changes after dosing were measured using a BAT-12 digital microprobe thermometer (Physitemp Instruments, Clifton, NJ, United States) at the times specified in the figures. Blood samples were collected from mice at various times by cardiac puncture, seconds after cervical dislocation, into ice-cold tubes containing K2EDTA. These were placed on ice immediately after collection and centrifuged (3,000 g, 3 min) within 10 min to harvest plasma. Plasma and tissues were rapidly frozen in liquid nitrogen before storage at -80°C for subsequent bioanalysis.
Concentration-time data were analyzed by non-compartmental analysis using Phoenix WinNonlin (ver 6.4, Build 6.4.0768 Pharsight, United States); all AUC values were extrapolated to infinity using the linear trapezoidal rule. A compartmental model for plasma PK after dosing with SN30000 or M14 was fitted using Phoenix NLME v1.3 with random effects on the metabolite volumes of distribution, and temperature effects based on the observed body temperature at the last measurement time. Temperature effects were added or removed until there was no significant change in the log likelihood. Model fits were further assessed by visual inspection of the residuals and predicted PK.

in vivo [2] = conditions: NIH-III, mouse, in vivo, ip, 186 mg/kg
Method: (§1) M18 was quantified by absorbance detection with reference to an external standard calibration curve.
(§2) Concentration-time data were analyzed by non-compartmental analysis using Phoenix WinNonlin (ver 6.4, Build 6.4.0768 Pharsight, United States); all AUC values were extrapolated to infinity using the linear trapezoidal rule.
(§3) SN30000, M14 and M13 were quantified by LC-MS/MS using stable isotope internal standards, while M18 was quantified by absorbance detection using external standard calibration curves.

HCT116 cells = experiment: Antiproliferative potency, 4 h exposure, sulforhodamine B; assay type: cell-based, human; conditions: Homo sapiens, HCT-116, 4 h, HCT116, 4 h exposure
Method: Antiproliferative potency of SN30000 and its major metabolites following 4 h exposure of HCT116 cells under aerobic or anoxic conditions. […]
a HCT116 cells, originally from ATCC, were authenticated by short tandem repeat profiling and confir med mycoplasma-free by PCR/ELISA assay . Cells were passaged in Alpha MEM with 5% foetal bovine serum without antibiotics. In vitro cytotoxicity of SN30000 and metabolites was measured as the inhibition of cell proliferation as described previously (Gu et al., 2009). Briefly, cells were exposed to compounds for 4 h under aerobic (20% O2) or anoxic (Bactron anaerobic chamber) conditions and then grown in an aerobic 5% CO 2 incubator for 5 d before staining with sulforhodamine B. IC50 values were deter mined by interpolation (nonlinear regression to the standard Hill equation) as the drug concentration reducing staining to 50% of controls on the same plate. b Values are mean ± SEM for the numb er of independent experiments shown in parentheses.

[3] = i.p. SN30000 186 mg/kg
Method: as §1, §2, §3

NIH-III mice = experiment: Core body (rectal) temperature and acute clinical signs after dosing; assay type: in vivo; conditions: for Initial rate of temperature loss (rectum): i.p. SN30000 186 mg/kg, TPZ 31.7 mg/kg, M14 135 mg/kg
Method: Supplementary Figure 3. Initial rates of core temperature decrease in (untreated) NIH-III mice post- mortem: co mparison with initial temperature change ante- mortem following treatment with benzotriazine oxides at their MTD. Temperature was measured in rectu m and liver over 15 min. Initial rates of temperature loss (°C/min) were: post- mortem (rectum):
(rectum) 0.33. The rectal temperature loss following dosing with M14 (135 mg/kg) was 0.6 °C/min (not shown for clarity). The drug-induced changes are redrawn from Fig. 4.

[4] = Stability in mouse liver homogenates (QC samples); assay type: physicochemical
Excerpt: using octa-deuterated internal standards of SN30000, M13 and M14 synthesised as previously reported (Wang et al., 2012). Intra- and inter-day precision (expressed as relative standard deviation (RSD) and accuracy (expressed as percentage of the nominal value) were deter mined by analy sis of replicates (n=6) of low and high quality control (QC) samples on three different days. The lower limit of quantitation (LLOQ) was defined as the lowest concentration providing RSD and accuracy < 20%. Recovery from plasma and liver ho mogenates was tested at the three QC levels. The recoveries were evaluated by comparing extracted samples with blank extracted solutions spiked with analytes of the same amount.
Matrix effects, defined as the change in response due to the presence of other substances in the samples, were evaluated by comparing the analytes diluted into the blank plasma or liver extracted solution with that of the same stock solutions diluted in water. Three different concentration levels (low, medium and high QC) were evaluated by analysing three samples at each level. Accuracy , precision, recovery and matrix effects were all acceptable over the concentration ranges evaluated for plas ma (Supplementary Table 1) and for liver homogenates (Supplementary Table 2).
Stability of the analytes in mouse plasma (Supplementary Table 3) or liver homogenate (Supplementary Table 4) was confirmed during holding of QC samples on ice for up to 2 h under nor mal laboratory lighting, although there was a trend towards loss of SN30000 in plasma samples held in clear microcentrifuge tubes which may reflect the known photosensitivity of the compound (Gu et al., 2014). This loss was reduced by use of red microcentrifuge tubes, and eliminated by black tubes. Stability in both matrices was also confir med for one month storage at -80°C and for three freeze-thaw cycles, while MeOH-deproteinised samples w ere stable for 12 h at 4°C in the autosampler (Supplementary Tables

[5] = i.p. SN30000 186 mg/kg, plasma, non-tumour-bearing mice
[6] = Elimination half-life, i.p. SN30000 186 mg/kg, all tissues except tumors
[7] = Terminal T1/2, i.p. SN30000 186 mg/kg, HT29 tumour, tumour-bearing mice
[8] = Terminal T1/2, i.p. SN30000 186 mg/kg, brain, non-tumour-bearing mice
[9] = Terminal T1/2, i.p. SN30000 186 mg/kg, liver, HT29 tumour-bearing mice
[10] = Terminal T1/2, i.p. SN30000 186 mg/kg, liver, non-tumour-bearing mice
[11] = Terminal T1/2, i.p. SN30000 186 mg/kg, plasma, HT29 tumour-bearing mice
[12] = Terminal T1/2, i.p. SN30000 186 mg/kg, plasma, non-tumour-bearing mice
[13] = HT29 tumour, tumour-bearing mice
[14] = liver, HT29 tumour-bearing mice
[15] = plasma, HT29 tumour-bearing mice
[16] = plasma, non-tumour-bearing mice
[17] = liver homogenate deproteinised in 3 vol MeOH, 12 h autosampler at 4°C, nominal SN30000 0.5, M14 0.25, M13 0.1 µM
[18] = liver homogenate deproteinised in 3 vol MeOH, 12 h autosampler at 4°C, nominal SN30000 5, M14 2.5, M13 1 µM
[19] = liver homogenate deproteinised in 3 vol MeOH, 12 h autosampler at 4°C, nominal SN30000 50, M14 25, M13 10 µM
[20] = liver homogenate, 1 month at -80°C, nominal SN30000 0.5, M14 0.25, M13 0.1 µM
[21] = liver homogenate, 1 month at -80°C, nominal SN30000 5, M14 2.5, M13 1 µM
[22] = liver homogenate, 1 month at -80°C, nominal SN30000 50, M14 25, M13 10 µM
[23] = liver homogenate, 1h on ice, clear tubes, nominal SN30000 0.5, M14 0.25, M13 0.1 µM
[24] = liver homogenate, 1h on ice, clear tubes, nominal SN30000 5, M14 2.5, M13 1 µM
[25] = liver homogenate, 1h on ice, clear tubes, nominal SN30000 50, M14 25, M13 10 µM
[26] = liver homogenate, 2h on ice, nominal SN30000 0.5, M14 0.25, M13 0.1 µM
[27] = liver homogenate, 2h on ice, nominal SN30000 5, M14 2.5, M13 1 µM
[28] = liver homogenate, 2h on ice, nominal SN30000 50, M14 25, M13 10 µM
[29] = liver homogenate, three freeze-thaw cycles, nominal SN30000 0.5, M14 0.25, M13 0.1 µM
[30] = liver homogenate, three freeze-thaw cycles, nominal SN30000 5, M14 2.5, M13 1 µM
[31] = liver homogenate, three freeze-thaw cycles, nominal SN30000 50, M14 25, M13 10 µM

[O-][n+]1nc(CCCN2CCOCC2)nc2cc3c(cc21)CCC3 [M14]
AUC (in vivo [1]; 1.86 mg/kg): 0.02 µM·h
Cmax (in vivo [1]; 1.86 mg/kg): 0.053 µM
half-life (in vivo [1]; 1.86 mg/kg): 29.5 min
AUC (in vivo [1]; 18.6 mg/kg): 0.38 µM·h
Cmax (in vivo [1]; 18.6 mg/kg): 1.11 µM
half-life (in vivo [1]; 18.6 mg/kg): 32.5 min
AUC (in vivo [1]; 78.3 mg/kg): 7.52 µM·h
Cmax (in vivo [1]; 78.3 mg/kg): 13.3 µM
half-life (in vivo [1]; 78.3 mg/kg): 20.1 min
AUC (in vivo [1]; 92.8 mg/kg): 10.8 µM·h
Cmax (in vivo [1]; 92.8 mg/kg): 16.8 µM
half-life (in vivo [1]; 92.8 mg/kg): 22.9 min
AUC (in vivo [1]; 186 mg/kg): 24.6 µM·h
Cmax (in vivo [1]; 186 mg/kg): 23 µM
half-life (in vivo [1]; 186 mg/kg): 58.1 min
Tmax (in vivo [2]): ≤ 5 min
Cmax (in vivo [2]; [5]): 36.1 ± 5.5 µM
half-life (in vivo [2]; [6]): ~30 min
half-life (in vivo [2]; [7]): 94.8 min
half-life (in vivo [2]; [8]): 32.1 min
half-life (in vivo [2]; [9]): 42.7 min
half-life (in vivo [2]; [10]): 40.5 min
half-life (in vivo [2]; [11]): 40.6 min
half-life (in vivo [2]; [12]): 37.8 min
IC50 (HCT116 cells; aerobic (20% O2), read-out: IC50): 600 ± 60 µM
IC50 (HCT116 cells; anoxic, read-out: IC50): 900 ± 100 µM
Concentrations in brain compared with plasma [3]: higher in brain than plasma
AUC (extrapolated to infinity) [3, 13]: 136 µmol·h/kg
Cmax [3, 13]: 46.0 ± 3.9 µmol/kg
AUC (extrapolated to infinity) ([3]; brain, non-tumour-bearing mice): 126 µmol·h/kg
Cmax ([3]; brain, non-tumour-bearing mice): 162 ± 0 µmol/kg
AUC (extrapolated to infinity) [3, 14]: 305 µmol·h/kg
Cmax [3, 14]: 371 ± 26 µmol/kg
AUC (extrapolated to infinity) ([3]; liver, non-tumour-bearing mice): 350 µmol·h/kg
Cmax ([3]; liver, non-tumour-bearing mice): 469 ± 27 µmol/kg
AUC (extrapolated to infinity) [3, 15]: 27. 6 µmol. hr/kg
AUC (extrapolated to infinity) [3, 16]: 26.4 µmol·h/kg
Initial rate of temperature loss (rectum) (NIH-III mice): 0.6 °C/min
Bias [4, 17]: 3.86%
Measured conc [4, 17]: 0.26 µM
Bias [4, 18]: 5.73%
Measured conc [4, 18]: 2.64 µM
Bias [4, 19]: 5.22%
Measured conc [4, 19]: 26.30 µM
Bias [4, 20]: 1.76%
Measured conc [4, 20]: 0.25 µM
Bias [4, 21]: 4.04%
Measured conc [4, 21]: 2.35 µM
Bias [4, 22]: 5.13%
Measured conc [4, 22]: 23.54 µM
Bias [4, 23]: 5.21%
Measured conc [4, 23]: 0.26 µM
Bias [4, 24]: 1.78%
Measured conc [4, 24]: 2.54 µM
Bias [4, 25]: 3.05%
Measured conc [4, 25]: 25.76 µM
Bias [4, 26]: 8.20%
Measured conc [4, 26]: 0.27 µM
Bias [4, 27]: 9.32%
Measured conc [4, 27]: 2.73 µM
Bias [4, 28]: 0.75%
Measured conc [4, 28]: 25.19 µM
Bias [4, 29]: -4.84%
Measured conc [4, 29]: 0.24 µM
Bias [4, 30]: -5.62%
Measured conc [4, 30]: 2.36 µM
Bias [4, 31]: 5.39%
Measured conc [4, 31]: 26.35 µM

[O-][n+]1nc(CCCN2CCOCC2)[n+]([O-])c2cc3c(cc21)CCC3 [SN30000, 3-(3-Morpholinopropyl)-7,8-dihydro-6H-indeno[5,6-e][1,2,4]triazine 1,4-dioxide]
bioavailability (in vivo [1]): ~30%
AUC (in vivo [1]; 1.86 mg/kg): 0.17 µM·h
Cmax (in vivo [1]; 1.86 mg/kg): 0.59 µM
half-life (in vivo [1]; 1.86 mg/kg): 20.8 min
AUC (in vivo [1]; 18.6 mg/kg): 2.1 µM·h
Cmax (in vivo [1]; 18.6 mg/kg): 6.8 µM
half-life (in vivo [1]; 18.6 mg/kg): 25 min
bioavailability (in vivo [1]; 78 mg/kg): ~70%
AUC (in vivo [1]; 78.3 mg/kg): 31.5 µM·h
Cmax (in vivo [1]; 78.3 mg/kg): 60.8 µM
half-life (in vivo [1]; 78.3 mg/kg): 16.1 min
AUC (in vivo [1]; 92.8 mg/kg): 49.2 µM·h
Cmax (in vivo [1]; 92.8 mg/kg): 77.9 µM
half-life (in vivo [1]; 92.8 mg/kg): 19.7 min
AUC (in vivo [1]; 186 mg/kg): 155 µM·h
Cmax (in vivo [1]; 186 mg/kg): 229 µM
half-life (in vivo [1]; 186 mg/kg): 42.5 min
Tmax (in vivo [2]): ≤ 5 min
Cmax (in vivo [2]; i.p. SN30000 186 mg/kg, plasma, HT29 tumour-bearing mice): 217 ± 18 µM
Cmax (in vivo [2]; [5]): 210 ± 9 µM
half-life (in vivo [2]; [6]): ~30 min
half-life (in vivo [2]; [7]): 36.2 min
half-life (in vivo [2]; [8]): 26.4 min
half-life (in vivo [2]; [9]): 35.7 min
half-life (in vivo [2]; [10]): 44.3 min
half-life (in vivo [2]; [11]): 33.9 min
half-life (in vivo [2]; [12]): 32.7 min
IC50 (HCT116 cells; aerobic (20% O2)): 148 ± 20 µM
IC50 (HCT116 cells; anoxic): 1.7 ± 0.4 µM
AUC (extrapolated to infinity) [3, 13]: 111 µmol·h/kg
Cmax [3, 13]: 69.9 ± 12.1 µmol/kg
AUC (extrapolated to infinity) ([3]; brain, non-tumour-bearing mice): 158 µmol·h/kg
Cmax ([3]; brain, non-tumour-bearing mice): 217 ± 12 µmol/kg
AUC (extrapolated to infinity) [3, 14]: 164 µmol·h/kg
Cmax [3, 14]: 172 ± 8 µmol/kg
AUC (extrapolated to infinity) ([3]; liver, non-tumour-bearing mice): 147 µmol·h/kg
Cmax ([3]; liver, non-tumour-bearing mice): 164 ± 38 µmol/kg
AUC (extrapolated to infinity) [3, 15]: 159 µmol·h/kg
AUC (extrapolated to infinity) [3, 16]: 156 µmol·h/kg
Drop in rectal temperature at nadir, below controls (NIH-III mice; i.p. MTD dose (186 mg/kg)): ~8 °C
Time of temperature nadir (NIH-III mice; i.p. MTD dose (186 mg/kg)): approximately 30 min
Initial rate of temperature loss (rectum) (NIH-III mice): 0.52 °C/min
Bias [4, 17]: 3.36%
Measured conc [4, 17]: 0.52 µM
Bias [4, 18]: 2.86%
Measured conc [4, 18]: 5.14 µM
Bias [4, 19]: 6.75%
Measured conc [4, 19]: 53.37 µM
Bias [4, 20]: 1.98%
Measured conc [4, 20]: 0.52 µM
Bias [4, 21]: 4.40%
Measured conc [4, 21]: 4.77 µM
Bias [4, 22]: 4.71%
Measured conc [4, 22]: 47.06 µM
Bias [4, 23]: 2.46%
Measured conc [4, 23]: 0.51 µM
Bias [4, 24]: 4.72%
Measured conc [4, 24]: 5.24 µM
Bias [4, 25]: 6.87%
Measured conc [4, 25]: 53.43 µM
Bias [4, 26]: -3.26%
Measured conc [4, 26]: 0.48 µM
Bias [4, 27]: 2.72%
Measured conc [4, 27]: 5.14 µM
Bias [4, 28]: 1.20%
Measured conc [4, 28]: 50.60 µM
Bias [4, 29]: -10.74%
Measured conc [4, 29]: 0.45 µM
Bias [4, 30]: -8.29%
Measured conc [4, 30]: 4.59 µM
Bias [4, 31]: 4.78%
Measured conc [4, 31]: 52.39 µM
